Results on 13 molecules are retold here after PubChem BioAssay (NCI).

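All cell lines were grown in 96-well plates and treated with compound for 48 hours. GI50 marks 50% less growth. The concentration for full growth arrest is given as TGI.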

Some test systems named below: SK-MEL-28 melanoma; NCI-H23 lung; ACHN renal; RXF 393 renal; HCT-116 colon; HT29 colon; RPMI-8226 leukemia; SR leukemia; HL-60(TB) leukemia; COLO 205 colon.
Experiment in all cases: growth of human tumour cells (NCI), 48 h

Regarding `O=C(O)[C@@H]1C[C@@H](O)CN1C(=O)OCc1ccccc1`, the TGI with SK-MEL-28 melanoma, with NCI-H23 lung, in the assay with ACHN renal, in the assay on RXF 393 renal, in the assay on HCT-116 colon and in the assay on HT29 colon was over 100 µM throughout. Moreover, the TGI in the assay on RPMI-8226 leukemia, in the assay with SR leukemia, in the assay with HL-60(TB) leukemia and with COLO 205 colon was over 100 µM in each case.

Regarding `COC(=O)c1ccccc1/C=C1/Cc2ccccc2C1=O`, the TGI in the assay with SK-MEL-28 melanoma is over 100 µM; in the assay with NCI-H23 lung, over 100 µM; in the assay on ACHN renal it was over 100 µM; in the assay with RXF 393 renal, over 100 µM; in the assay with HCT-116 colon it was 62.8 µM; with HT29 colon, over 100 µM. In addition, the TGI in the assay with RPMI-8226 leukemia is 49.5 µM; with SR leukemia, over 100 µM; in the assay on HL-60(TB) leukemia, over 100 µM; in the assay on COLO 205 colon it was over 100 µM.

`CCC[C@H]1C(=O)N=C(N)N1C(=O)OCc1ccccc1`: the TGI with SK-MEL-28 melanoma, with NCI-H23 lung, with ACHN renal, with RXF 393 renal, in the assay with HCT-116 colon and with HT29 colon was over 100 µM in each case. Moreover, the TGI with RPMI-8226 leukemia, in the assay with SR leukemia, with HL-60(TB) leukemia and in the assay with COLO 205 colon was over 100 µM each time.

On to `NC(=O)C(=O)N/N=C1/c2ccccc2CC1C1(O)C(=O)Nc2c(Cl)cc(Cl)cc21` (stereo not drawn), for which the TGI in the assay with SK-MEL-28 melanoma, in the assay with NCI-H23 lung, in the assay on ACHN renal, in the assay with RXF 393 renal, with HCT-116 colon and in the assay with HT29 colon was over 100 µM each time. Further, the TGI in the assay with RPMI-8226 leukemia, in the assay on SR leukemia, with HL-60(TB) leukemia and in the assay with COLO 205 colon was over 100 µM throughout.

With `CCOC1CC(=O)c2c(Br)sc(Br)c21` (stereo not drawn), the TGI in the assay on SK-MEL-28 melanoma worked out at 39.5 µM; in the assay with NCI-H23 lung, 37.4 µM; with ACHN renal, 36.7 µM; in the assay on RXF 393 renal, 35.5 µM; in the assay with HCT-116 colon it was 38.4 µM; in the assay on HT29 colon, 44 µM. In addition, the TGI was 49.6 µM in the assay with RPMI-8226 leukemia, 60.3 µM in the assay with SR leukemia, 48.6 µM in the assay on HL-60(TB) leukemia and 38.4 µM in the assay with COLO 205 colon.

Turning to `O=C(CN1CCCCC1)CC(O)(C(F)(F)F)C(F)(F)F`, the TGI in the assay with SK-MEL-28 melanoma, in the assay on NCI-H23 lung, in the assay on ACHN renal, in the assay with RXF 393 renal, in the assay with HCT-116 colon and in the assay on HT29 colon was over 100 µM each time. The TGI with RPMI-8226 leukemia, in the assay with SR leukemia, with HL-60(TB) leukemia and in the assay with COLO 205 colon was over 100 µM each time.

`COc1ccc(-c2cc(=O)c3cc4c(cc3[nH]2)OCO4)c(OC)c1OC`: the TGI with SK-MEL-28 melanoma, in the assay on NCI-H23 lung, in the assay with ACHN renal, in the assay on RXF 393 renal, in the assay with HCT-116 colon and in the assay with HT29 colon was over 100 µM each time. The TGI was over 100 µM in the assay on RPMI-8226 leukemia, 70.9 µM in the assay on SR leukemia, over 100 µM with HL-60(TB) leukemia and over 100 µM with COLO 205 colon.

`O=C1c2ccccc2CN1c1ccc(O)cc1`: the TGI in the assay with SK-MEL-28 melanoma, in the assay on NCI-H23 lung, in the assay with ACHN renal, in the assay with RXF 393 renal, with HCT-116 colon and with HT29 colon was over 100 µM each time. In addition, the TGI with RPMI-8226 leukemia, in the assay on SR leukemia, in the assay with HL-60(TB) leukemia and in the assay on COLO 205 colon was over 100 µM in each case.

On to `O=[N+]([O-])C(=C(N1CCCCC1)N1CCCCC1)/C(Cl)=C(\Cl)Br`, for which the TGI is 41.4 µM in the assay with SK-MEL-28 melanoma; 41.2 µM with NCI-H23 lung; 79.5 µM in the assay with ACHN renal; 62.9 µM in the assay on RXF 393 renal; 41.7 µM in the assay with HCT-116 colon; over 100 µM in the assay with HT29 colon. Besides, the TGI in the assay on RPMI-8226 leukemia was 44.2 µM; with SR leukemia, 30.9 µM; in the assay on HL-60(TB) leukemia, 37.9 µM; in the assay with COLO 205 colon, 38.7 µM.

For the molecule `O=C1CCSSCCC(=O)NCCN1`, the TGI in the assay with SK-MEL-28 melanoma, in the assay with NCI-H23 lung, with ACHN renal, with RXF 393 renal, in the assay with HCT-116 colon and in the assay with HT29 colon was over 100 µM in each case. Besides, the TGI in the assay on RPMI-8226 leukemia, in the assay on SR leukemia, in the assay with HL-60(TB) leukemia and with COLO 205 colon was over 100 µM each time.

As to `CSCCC(NCc1c(O)ccc2c(-c3ccccc3)cc(=O)oc12)C(=O)O` (stereo not drawn), the TGI with SK-MEL-28 melanoma, with NCI-H23 lung, with ACHN renal, in the assay on RXF 393 renal, in the assay on HCT-116 colon and in the assay with HT29 colon was over 100 µM throughout. In addition, the TGI in the assay on RPMI-8226 leukemia, in the assay on SR leukemia, in the assay with HL-60(TB) leukemia and in the assay with COLO 205 colon was over 100 µM each time.

In the case of `CC(C)=CCc1c2c(c3occ(-c4ccc(O)c(O)c4)c(=O)c3c1O)C=CC(C)(C)O2`, the TGI in the assay with SK-MEL-28 melanoma came to 8.66 µM; in the assay with NCI-H23 lung, 3.84 µM; in the assay on ACHN renal, 6.29 µM; with RXF 393 renal it was 4.14 µM; with HCT-116 colon it was 4.29 µM; in the assay on HT29 colon, 3.84 µM. Besides, the TGI in the assay on RPMI-8226 leukemia was determined as 4.04 µM; in the assay on SR leukemia it was 2.12 µM; in the assay on HL-60(TB) leukemia, 0.246 µM; with COLO 205 colon it was 4.04 µM.

`Oc1ccc(-c2nnc3sc(-c4ccc(F)cc4)nn23)cc1`: the GI50 in the assay on SK-MEL-28 melanoma is over 100 µM; in the assay on NCI-H23 lung, 27.8 µM; in the assay on ACHN renal it was 24.7 µM; with RXF 393 renal it was 15.6 µM; in the assay with HT29 colon, over 100 µM; in the assay with RPMI-8226 leukemia, 39 µM. For the same molecule, the GI50 in the assay with SR leukemia is 15.1 µM; in the assay with HL-60(TB) leukemia, over 100 µM; in the assay on COLO 205 colon it was 16.9 µM. Moreover, the TGI was over 100 µM with SK-MEL-28 melanoma; 84.9 µM in the assay with NCI-H23 lung; over 100 µM in the assay on ACHN renal; 38.2 µM in the assay on RXF 393 renal; over 100 µM with HT29 colon; over 100 µM in the assay with RPMI-8226 leukemia. Moreover, the results for the TGI in the assay with SR leukemia, in the assay with HL-60(TB) leukemia and in the assay with COLO 205 colon were over 100 µM, over 100 µM and 34.1 µM, respectively.
